Measurements taken from paper PMC3163001 (Organic letters, 2011).

Biological target: SylD-CA (Pseudomonas syringae, UniProt Q83Y48)
Experiment: ATP-PPi radioactivity exchange assay
Type: biochemical
Settings: reversible adenylation

NCC/C=C/[C@H](N)C(=O)O [L-3,4-dehydrolysine]
ATP-PPi radioactivity exchange assay (preferred substrate of the A domain): As expected L-3,4-dhl was preferentially reversibly adenylated

NCCCC[C@H](N)C(=O)O [L-lysine]
ATP-PPi radioactivity exchange assay: L-lysine was reversibly adenylated at a much slower rate
